Test results as given in publication PMC9481570, “A small molecule antagonist of SMN disrupts the interaction between SMN and RNAP II” (Nature Communications, 2022).
“And” between values parts separate entries of the source, which are not always exact repeats. Equal entries are not always repeated.

Columns and labels:
Type in all cases: binding
[1] = target: T1, proteins displaced from immobilized biotin-Cmpd 1 pulldowns (U2OS cell lysate) (Homo sapiens, UniProt O60832); assay: Affinity-purification and mass spectrometry (AP-MS) chemical proteomics, all proteins; details: GN=DKC1 (O60832);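 for Difference: 200 µM free competitor with 20 µM biotin probe overnight in lysate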
T1 construct: endogenous in cells; host or cells: U2OS

[2] = target: T2, proteins displaced from immobilized biotin-Cmpd 1 pulldowns (U2OS cell lysate) (Homo sapiens, UniProt O75369); assay: as above; details: GN=FLNB (O75369)
T2 construct: endogenous in cells; host or cells: U2OS

[3] = target: T3, proteins displaced from immobilized biotin-Cmpd 1 pulldowns (U2OS cell lysate) (Homo sapiens, UniProt P42357); assay: as above; details: GN=HAL (P42357)
T3 construct: endogenous in cells; host or cells: U2OS

[4] = target: T4, proteins displaced from immobilized biotin-Cmpd 1 pulldowns (U2OS cell lysate) (Homo sapiens, UniProt P52948); assay: as above; details: GN=NUP98 (P52948)
T4 construct: endogenous in cells; host or cells: U2OS

[5] = target: T5, proteins displaced from immobilized biotin-Cmpd 1 pulldowns (U2OS cell lysate) (Homo sapiens, UniProt Q96AE4); assay: as above; details: GN=FUBP1 (Q96AE4)
T5 construct: endogenous in cells; host or cells: U2OS

[6] = target: T6, proteins displaced from immobilized biotin-Cmpd 1 pulldowns (U2OS cell lysate) (Homo sapiens, UniProt Q9UH17); assay: as above; details: GN=APOBEC3B (Q9UH17)
T6 construct: endogenous in cells; host or cells: U2OS

[7] = target: T7, SMN (Homo sapiens, UniProt Q16637); assay: AP-MS chemical proteomics, SMN
T7 construct: endogenous in cells; host or cells: U2OS
Procedure: The samples for AP-MS were prepared following pulldown procedure as previously described with minor modifications. Briefly, U2OS cells were lysed in RIPA buffer and the cell lysate was equally divided into two groups: (1) DMSO group (control group): the cell lysate was incubated with 20 μM biotin-labeled compound 1; (2) Cpmd 1 group (sample group): the cell lysate was incubated with 20 μM biotin-labeled compound 1 and 200 μM free compound 1. Each group contains three biological replicates. They were incubated overnight at 4 °C, then 30 μL streptavidin beads (Thermo Fisher, 20353) was added and incubated at 4 °C for 1 h. The beads were then washed with RIPA buffer for 3 times, 10 min/time.
Beads were rinsed twice with 50 mM TEAB, pH 7.55, before eluting proteins with 25 μL of 5% SDS, 50 mM TEAB, pH 7.55. The sample was then centrifuged at 17,000 × g for 10 min to remove any debris. Proteins were reduced with 20 mM TCEP (Thermo Fisher, 77720) and incubated at 65 °C for 30 min. […]
Samples were analyzed by nanoLC-MS/MS (nanoRSLC, Thermo Fisher) using an Aurora series (Ion Opticks) reversed phase HPLC column (25 cm length × 75 µm inner diameter) and directly injected to an Orbitrap Eclipse (Thermo Fisher) using a 120 min gradient (mobile phase A = 0.1% formic acid, mobile phase B = 99.9% acetonitrile with 0.1% formic acid; hold 2% B for 5 min, 2–6% B in 0.1 min, 6–25% in 100 min, 25–50% in 15 min) at a flow rate of 350 nL/min. Eluted peptide ions were analyzed using a data-dependent acquisition (DDA) method with resolution settings of 120,000 and 15,000 (at m/z 200) for MS1 and MS2 scans, respectively. […]
The data of AP-MS were analyzed as a previously described method with minor modifications. […] Relative protein quantification was based on the label-free quantification incorporated in the MaxQuant software. […] The missing iBAQ intensity was replaced by a random number, which was calculated from a normal distribution with a width of 0.3 and a downshift of 1.8 defined by Perseus software (version 1.6.5.0). The P-value was calculated by performing two-sample Student’s t-test. […]

T2 sequence (O75369 whole entry): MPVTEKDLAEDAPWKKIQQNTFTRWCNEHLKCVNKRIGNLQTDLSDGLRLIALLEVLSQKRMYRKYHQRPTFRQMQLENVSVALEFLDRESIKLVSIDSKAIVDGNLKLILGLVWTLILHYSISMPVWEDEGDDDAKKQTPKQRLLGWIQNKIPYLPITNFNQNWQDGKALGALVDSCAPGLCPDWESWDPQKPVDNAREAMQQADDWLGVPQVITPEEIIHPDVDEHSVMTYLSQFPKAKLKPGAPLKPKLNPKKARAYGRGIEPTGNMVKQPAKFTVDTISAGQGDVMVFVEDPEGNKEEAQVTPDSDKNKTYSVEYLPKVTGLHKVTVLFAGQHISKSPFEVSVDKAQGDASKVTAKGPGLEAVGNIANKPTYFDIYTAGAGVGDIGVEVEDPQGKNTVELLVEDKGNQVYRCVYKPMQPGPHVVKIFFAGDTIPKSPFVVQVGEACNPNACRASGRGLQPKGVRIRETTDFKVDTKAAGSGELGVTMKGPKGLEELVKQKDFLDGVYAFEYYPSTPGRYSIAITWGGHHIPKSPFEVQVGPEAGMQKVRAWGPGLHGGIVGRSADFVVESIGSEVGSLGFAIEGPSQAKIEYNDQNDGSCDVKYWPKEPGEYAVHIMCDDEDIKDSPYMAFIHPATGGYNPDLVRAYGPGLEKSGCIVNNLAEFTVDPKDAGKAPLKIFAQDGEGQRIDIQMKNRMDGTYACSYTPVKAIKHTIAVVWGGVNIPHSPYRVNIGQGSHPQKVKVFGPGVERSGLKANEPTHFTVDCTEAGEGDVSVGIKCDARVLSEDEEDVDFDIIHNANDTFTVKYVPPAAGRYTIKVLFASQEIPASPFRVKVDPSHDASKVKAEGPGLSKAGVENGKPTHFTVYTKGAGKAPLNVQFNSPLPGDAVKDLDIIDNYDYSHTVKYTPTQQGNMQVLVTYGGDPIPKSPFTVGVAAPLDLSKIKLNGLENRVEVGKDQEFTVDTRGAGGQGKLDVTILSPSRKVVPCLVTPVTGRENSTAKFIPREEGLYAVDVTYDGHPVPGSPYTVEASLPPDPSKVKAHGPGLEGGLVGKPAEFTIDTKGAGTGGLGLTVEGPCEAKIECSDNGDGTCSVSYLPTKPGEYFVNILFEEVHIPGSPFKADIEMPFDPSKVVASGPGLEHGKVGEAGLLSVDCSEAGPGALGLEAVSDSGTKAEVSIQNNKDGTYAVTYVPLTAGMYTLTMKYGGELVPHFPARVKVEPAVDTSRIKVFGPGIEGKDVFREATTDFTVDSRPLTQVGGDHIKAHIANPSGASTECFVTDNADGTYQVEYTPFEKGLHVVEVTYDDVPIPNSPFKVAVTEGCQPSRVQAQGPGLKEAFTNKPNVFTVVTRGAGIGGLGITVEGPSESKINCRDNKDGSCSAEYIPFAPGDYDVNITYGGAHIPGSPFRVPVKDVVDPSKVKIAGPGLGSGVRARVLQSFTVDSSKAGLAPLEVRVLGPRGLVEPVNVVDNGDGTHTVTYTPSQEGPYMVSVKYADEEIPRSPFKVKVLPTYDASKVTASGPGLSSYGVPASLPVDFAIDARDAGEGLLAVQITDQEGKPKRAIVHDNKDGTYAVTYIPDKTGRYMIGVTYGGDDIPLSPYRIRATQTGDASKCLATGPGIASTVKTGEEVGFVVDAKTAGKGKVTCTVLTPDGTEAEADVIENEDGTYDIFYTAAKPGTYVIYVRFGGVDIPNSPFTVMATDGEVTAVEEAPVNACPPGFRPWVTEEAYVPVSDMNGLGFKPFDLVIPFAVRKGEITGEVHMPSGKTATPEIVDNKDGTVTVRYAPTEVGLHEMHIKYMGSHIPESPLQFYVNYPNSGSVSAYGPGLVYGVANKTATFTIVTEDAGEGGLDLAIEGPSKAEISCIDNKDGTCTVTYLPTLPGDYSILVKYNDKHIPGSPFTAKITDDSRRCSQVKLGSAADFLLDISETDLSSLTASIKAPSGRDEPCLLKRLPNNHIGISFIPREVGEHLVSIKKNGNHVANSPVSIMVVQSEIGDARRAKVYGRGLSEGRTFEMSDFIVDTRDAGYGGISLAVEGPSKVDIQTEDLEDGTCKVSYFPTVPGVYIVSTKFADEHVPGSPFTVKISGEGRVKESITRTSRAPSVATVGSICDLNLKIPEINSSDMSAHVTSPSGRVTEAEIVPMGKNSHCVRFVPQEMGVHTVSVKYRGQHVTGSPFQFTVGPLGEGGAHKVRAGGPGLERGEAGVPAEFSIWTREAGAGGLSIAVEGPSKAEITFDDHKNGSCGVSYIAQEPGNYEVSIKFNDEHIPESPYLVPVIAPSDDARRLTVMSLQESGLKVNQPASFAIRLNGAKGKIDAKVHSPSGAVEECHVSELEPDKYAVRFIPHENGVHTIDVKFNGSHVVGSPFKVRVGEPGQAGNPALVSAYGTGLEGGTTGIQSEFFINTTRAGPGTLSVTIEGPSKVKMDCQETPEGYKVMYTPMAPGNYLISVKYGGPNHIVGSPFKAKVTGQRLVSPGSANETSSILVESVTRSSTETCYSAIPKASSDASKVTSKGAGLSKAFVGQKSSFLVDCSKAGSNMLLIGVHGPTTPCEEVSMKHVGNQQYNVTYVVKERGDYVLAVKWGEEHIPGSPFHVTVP
T1 sequence (O60832 whole entry): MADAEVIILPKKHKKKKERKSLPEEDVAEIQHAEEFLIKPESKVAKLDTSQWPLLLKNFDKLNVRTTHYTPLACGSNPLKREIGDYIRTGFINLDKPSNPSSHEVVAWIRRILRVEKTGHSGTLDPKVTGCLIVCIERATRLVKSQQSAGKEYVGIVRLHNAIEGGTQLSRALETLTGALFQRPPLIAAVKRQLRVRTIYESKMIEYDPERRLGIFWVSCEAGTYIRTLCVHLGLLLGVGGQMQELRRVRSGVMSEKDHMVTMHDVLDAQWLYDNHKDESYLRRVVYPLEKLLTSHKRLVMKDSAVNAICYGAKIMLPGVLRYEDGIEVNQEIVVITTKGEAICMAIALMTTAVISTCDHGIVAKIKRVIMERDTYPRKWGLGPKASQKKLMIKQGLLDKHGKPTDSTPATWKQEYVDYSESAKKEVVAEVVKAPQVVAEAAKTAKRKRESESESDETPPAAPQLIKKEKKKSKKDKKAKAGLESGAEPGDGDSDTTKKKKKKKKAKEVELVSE
T3 sequence (P42357 whole entry): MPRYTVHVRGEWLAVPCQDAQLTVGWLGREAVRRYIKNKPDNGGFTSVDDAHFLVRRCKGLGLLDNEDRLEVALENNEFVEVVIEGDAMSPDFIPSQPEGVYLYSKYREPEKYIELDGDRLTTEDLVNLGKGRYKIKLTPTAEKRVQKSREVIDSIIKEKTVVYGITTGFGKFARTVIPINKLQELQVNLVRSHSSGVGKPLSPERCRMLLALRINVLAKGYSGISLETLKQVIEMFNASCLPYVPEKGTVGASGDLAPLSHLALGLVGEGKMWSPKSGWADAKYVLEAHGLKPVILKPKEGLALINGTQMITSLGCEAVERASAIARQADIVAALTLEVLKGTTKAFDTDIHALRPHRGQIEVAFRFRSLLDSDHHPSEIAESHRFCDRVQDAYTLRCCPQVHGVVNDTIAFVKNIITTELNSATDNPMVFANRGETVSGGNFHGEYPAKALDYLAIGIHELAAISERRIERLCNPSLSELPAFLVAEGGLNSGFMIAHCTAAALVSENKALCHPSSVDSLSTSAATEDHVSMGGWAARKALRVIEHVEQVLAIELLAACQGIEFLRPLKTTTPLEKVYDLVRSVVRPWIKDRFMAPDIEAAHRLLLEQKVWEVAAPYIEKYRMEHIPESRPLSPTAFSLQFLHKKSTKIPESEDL
T6 sequence (Q9UH17 whole entry): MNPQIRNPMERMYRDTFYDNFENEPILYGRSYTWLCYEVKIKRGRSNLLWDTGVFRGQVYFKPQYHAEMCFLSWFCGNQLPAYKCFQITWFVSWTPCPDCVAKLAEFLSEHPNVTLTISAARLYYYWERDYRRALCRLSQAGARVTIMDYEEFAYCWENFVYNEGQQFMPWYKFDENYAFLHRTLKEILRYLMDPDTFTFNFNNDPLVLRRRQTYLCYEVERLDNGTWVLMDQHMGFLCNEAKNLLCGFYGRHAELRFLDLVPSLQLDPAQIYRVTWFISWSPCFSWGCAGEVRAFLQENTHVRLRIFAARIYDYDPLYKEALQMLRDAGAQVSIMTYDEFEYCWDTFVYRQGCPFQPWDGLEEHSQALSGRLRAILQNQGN
T5 sequence (Q96AE4 whole entry): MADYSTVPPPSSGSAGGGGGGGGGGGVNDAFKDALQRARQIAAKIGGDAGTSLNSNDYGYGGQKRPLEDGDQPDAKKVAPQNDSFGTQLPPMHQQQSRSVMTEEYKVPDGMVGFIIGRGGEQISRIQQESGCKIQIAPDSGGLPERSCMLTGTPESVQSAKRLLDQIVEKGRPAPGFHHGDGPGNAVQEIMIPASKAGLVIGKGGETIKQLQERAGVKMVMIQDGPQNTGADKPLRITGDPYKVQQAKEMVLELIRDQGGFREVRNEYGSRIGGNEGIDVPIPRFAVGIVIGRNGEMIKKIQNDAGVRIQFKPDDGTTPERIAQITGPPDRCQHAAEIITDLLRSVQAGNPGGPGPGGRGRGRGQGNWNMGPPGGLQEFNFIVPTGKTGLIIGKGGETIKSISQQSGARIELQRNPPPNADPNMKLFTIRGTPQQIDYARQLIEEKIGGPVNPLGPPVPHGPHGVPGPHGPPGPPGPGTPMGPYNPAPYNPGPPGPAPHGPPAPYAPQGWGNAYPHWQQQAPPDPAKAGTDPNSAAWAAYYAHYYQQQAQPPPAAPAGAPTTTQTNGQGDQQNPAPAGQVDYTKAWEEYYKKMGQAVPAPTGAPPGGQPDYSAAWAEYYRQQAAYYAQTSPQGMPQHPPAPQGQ
T7 sequence (Q16637 whole entry): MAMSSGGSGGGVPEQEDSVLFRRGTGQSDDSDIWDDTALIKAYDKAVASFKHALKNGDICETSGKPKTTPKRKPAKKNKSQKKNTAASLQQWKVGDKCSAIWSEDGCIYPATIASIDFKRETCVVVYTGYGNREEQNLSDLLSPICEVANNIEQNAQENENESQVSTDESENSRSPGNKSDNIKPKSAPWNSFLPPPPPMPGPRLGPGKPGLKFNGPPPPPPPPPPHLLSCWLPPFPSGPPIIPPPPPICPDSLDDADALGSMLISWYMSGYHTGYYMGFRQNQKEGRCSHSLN

SMILES: Cn1c2c(c(=N)c3c1CCC3)CCC2 [Compound 1, 4-methyl-2,3,4,5,6,7-hexahydrodicyclopenta[b,e]pyridin-8(1H)-imine]
- Difference ([1]; Cmpd minus DMSO, -LOG(P-value) 0.760368): 0.5453
- iBAQ Cmpd ([1]; replicates 1-3): 19.0033 and 19.8581 and 19.0089
- Difference ([2]; Cmpd minus DMSO, -LOG(P-value) 0.706969): 1.057
- iBAQ Cmpd ([2]; replicates 1-3): 17.1694 and 17.27 and 16.0757
- Difference ([3]; Cmpd minus DMSO, -LOG(P-value) 1.13561): -1.443
- iBAQ Cmpd ([3]; replicates 1-3): 15.8179 and 16.0542 and 14.8398
- Difference ([4]; Cmpd minus DMSO, -LOG(P-value) 0.703266): 1.019
- iBAQ Cmpd ([4]; replicates 1-3): 16.2576 and 15.2783 and 15.0872
- Difference ([5]; Cmpd minus DMSO, -LOG(P-value) 0.798774): 1.187
- iBAQ Cmpd ([5]; replicates 1-3): 19.58 and 17.8353 and 18.5748
- Difference ([6]; Cmpd minus DMSO, -LOG(P-value) 0.938202): -0.8112
- iBAQ Cmpd ([6]; replicates 1-3): 21.4277 and 21.5751 and 21.8529
- Difference ([7]; GN=SMN1/SMN2 (Q16637), Cmpd minus DMSO, -LOG(P-value) 4.49648): -8.914
- iBAQ Cmpd ([7]; GN=SMN1/SMN2 (Q16637), replicates 1-3): 15.271 and 13.8686 and 14.4098
- log2 FC (Cmpd 1/DMSO), SMN ([7]; biotin-Cmpd 1 pulldown, competition with 200 μM compound 1 relative to DMSO, U2OS lysate): −8.9
